PubChem BioAssay (NCI)
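At the GI50, growth is halved. TGI: total growth inhibition.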

How the values were obtained:
Assay in all cases: growth of human tumour cells (NCI), 384-well format
786-0 renal = tested on: 786-0 renal
A498 renal = tested on: A498 renal
ACHN renal = tested on: ACHN renal
BT-549 breast = tested on: BT-549 breast
CAKI-1 renal = tested on: CAKI-1 renal
DU-145 prostate = tested on: DU-145 prostate
EKVX NSCLC = tested on: EKVX NSCLC
HCC-2998 colon = tested on: HCC-2998 colon
HCT-116 colon = tested on: HCT-116 colon
HCT-15 colon = tested on: HCT-15 colon
HL-60(TB) leukemia = tested on: HL-60(TB) leukemia
HOP-62 NSCLC = tested on: HOP-62 NSCLC
HOP-92 NSCLC = tested on: HOP-92 NSCLC
HS 578T breast = tested on: HS 578T breast
HT29 colon = tested on: HT29 colon
IGROV1 ovarian = tested on: IGROV1 ovarian
K-562 leukemia = tested on: K-562 leukemia
KM12 colon = tested on: KM12 colon
LOX IMVI melanoma = tested on: LOX IMVI melanoma
M14 melanoma = tested on: M14 melanoma
MALME-3M melanoma = tested on: MALME-3M melanoma
MCF7 breast = tested on: MCF7 breast
MDA-MB-231 breast = tested on: MDA-MB-231 breast
MDA-MB-435 melanoma = tested on: MDA-MB-435 melanoma
MDA-MB-468 breast = tested on: MDA-MB-468 breast
MOLT-4 leukemia = tested on: MOLT-4 leukemia
NCI-H226 lung = tested on: NCI-H226 lung
NCI-H23 lung = tested on: NCI-H23 lung

With `CCn1cc(-c2ccnc3[nH]c(-c4cccc(CN(C)C)c4)cc23)c(-c2ccc(NC(=O)N(C)C)cc2)n1` the GI50 ([…]-0 renal) was 1450 nM, the TGI (786-0 renal) was 5230 nM and the GI50 (A498 renal) was 1180 nM. It also gave a TGI (A498 renal) of 9520 nM, a GI50 (ACHN renal) of 2230 nM and a TGI (ACHN renal) of 10700 nM. The GI50 (BT-549 breast) was 293 nM, the TGI (BT-549 breast) was 1770 nM and the GI50 (CAKI-1 renal) was 246 nM. The TGI (CAKI-1 renal) was 1940 nM, the GI50 (DU-145 prostate) was 2710 nM and the TGI (DU-145 prostate) was 14600 nM. The GI50 (EKVX NSCLC) was 1110 nM, the TGI (EKVX NSCLC) was 4860 nM and the GI50 (HCC-2998 colon) was 1690 nM. The TGI (HCC-2998 colon) was 4200 nM, the GI50 (HCT-116 colon) was 158 nM and the TGI (HCT-116 colon) was 1940 nM. It also gave a GI50 (HCT-15 colon) of 1940 nM, a TGI (HCT-15 colon) of 9960 nM and a GI50 (HL-60(TB) leukemia) of less than 10 nM. It also gave a TGI (HL-60(TB) leukemia) of 1370 nM, a GI50 (HOP-62 NSCLC) of 516 nM and a TGI (HOP-62 NSCLC) of 7570 nM. The GI50 (HOP-92 NSCLC) was 449 nM, the TGI (HOP-92 NSCLC) was 2720 nM and the GI50 (HS 578T breast) was 1250 nM. For the same compound, the TGI (HS 578T breast) was 3170 nM, the GI50 (HT29 colon) was 1000 nM and the TGI (HT29 colon) was 2310 nM. The GI50 (IGROV1 ovarian) was 1530 nM, the TGI (IGROV1 ovarian) was 10400 nM and the GI50 (K-562 leukemia) was 1090 nM. The TGI (K-562 leukemia) was 2420 nM, the GI50 (KM12 colon) was 543 nM and the TGI (KM12 colon) was 2980 nM. For the same compound, the GI50 (LOX IMVI melanoma) was 422 nM, the TGI (LOX IMVI melanoma) was 1920 nM and the GI50 (M14 melanoma) was 1270 nM. It also gave a TGI (M14 melanoma) of 3940 nM, a GI50 (MALME-3M melanoma) of 1510 nM and a TGI (MALME-3M melanoma) of 3340 nM. It also gave a GI50 (MCF7 breast) of 843 nM, a TGI (MCF7 breast) of 7150 nM and a GI50 (MDA-MB-231 breast) of 1320 nM. It also gave a TGI (MDA-MB-231 breast) of 7090 nM, a GI50 (MDA-MB-435 melanoma) of 1680 nM and a TGI (MDA-MB-435 melanoma) of 5340 nM. It also gave a GI50 (MDA-MB-468 breast) of less than 10 nM, a GI50 (MOLT-4 leukemia) of less than 10 nM and a GI50 (NCI-H226 lung) of 186 nM. The TGI (NCI-H226 lung) was 1730 nM and the GI50 (NCI-H23 lung) was 403 nM.
